In patent US20230404989A1, “GRK2 INHIBITION BY PAROXETINE AMELIORATES OSTEOARTHRITIS” (THE PENN STATE RESEARCH FOUNDATION, priority 2020, published 2023):

Test system: PTH1R Gas/cAMP signaling
Experiment: PTH-stimulated cAMP in articular cartilage explants of sham or DMM mice treated with paroxetine
Design: species or system mouse
Settings: paroxetine ip 5 mg/kg/day for 8 weeks, cartilage stimulated with PTH ex vivo, 30 minutes
Procedure: Methods: Destabilization of the medial meniscus (DMM) surgery was used to simulate clinical post-traumatic OA. First, we determined the role of GRK2 inhibition in PTH1R Gas-cAMP signaling: 12 week old male mice underwent sham or DMM surgery and were treated with either vehicle or the GRK2 inhibitor “paroxetine” (ip, 5 mg/kg/day), treatment was initiated at the time of surgery and continued daily until 8 weeks. Knees were harvested and articular cartilage was obtained for ex vivo analysis of Gas activity. In ex vivo culture, cartilage explants were treated with PTH as an agonist to stimulate PTH1R-Ga-cAMP signaling. Thirty minutes following PTH stimulation, cartilage tissue was homogenized and cAMP levels were measured. Then, we determined the role of GRK2 inhibition in recovering or even potentiating PTH1R signaling in OA cartilage: 12 week old male mice underwent sham or DMM surgery, and received treatment with vehicle, PTH (sc, 40 μg/kg/day) alone, the GRK2 inhibitor “paroxetine3” (ip, 5 mg/kg/day) alone, or their combination. Treatment was initiated at week 8 following DMM surgery, where OA is in progress, and continued until week 12 where mice were sacrificed. […] Results are expressed as mean values+s.e.m. with an N=5-8 mice per experimental group. […]

## Fc1ccc([C@@H]2CCNC[C@H]2COc2ccc3c(c2)OCO3)cc1 [paroxetine]
DMM mice
  PTH/PTH1R-mediated cAMP production: recovered
Sham mice
  PTH/PTH1R-mediated cAMP production: potentiated
